The source of these data is patent publication US20060084627A1, “Synergistic interaction of abacavir and alovudine” (Medivir AB, priority 2002, published 2006).

For one data set, the system named is HIV-1, IIIb. As to the kind of experiment: microbe, parasite or virus in culture. It is filed as cell-based. Conditions: Human immunodeficiency virus 1, IIIB, MT4; alovudine alone at 0.003 uM, FIG. 3.
The subject of a further data set is multiresistant HIV. Conditions: patients, alovudine 7.5 mg qd add-on for four weeks. As for the experimental part: A phase IIa trial was performed with 15 patients failing their current NRTI-containing regimens. Each patient had HIV RNA>1000 cp/ml, with at least 2 mutations in the viral RT induced by previous viral therapy, as established by genotypic assay.
The patents were administered qd 7.5 mg alovudine in a conventional carrier in addition to their current regimen for four weeks. The current regimes included various permutations of 3-5 HIV antivirals selected from 3TC, ddI, D4T, nevirapine, DMP, ritonavir, kaletra, saquinavir, amprenavir and indinavir, administered in their conventional dosage forms and regimens. Antiviral load evaluation was performed weekly and then four weeks after discontinuation of alovudine.
As this clinical trial was performed as an add-on therapy to the patients pre-existing regime, it will be appreciated that the alovudine qd was administered in a separate dosage form to the abacavir (typically bd) and other antvirals (typically administered […]).

Structures are written as SMILES.

Method for HIV-1, IIIb: The antiviral effects of MIV-310 in combination with other NRTIs on HIV-1 replication in MT4 cells were examined by the median effect method (Chao and Talalay 1983). The assay was performed in microtiter plates with each well containing 10^5 cells and 20-50 tissue culture infective doses of HIV-1, IIIb. Each drug alone and a mixture of the drugs in a constant ratio were serially diluted in 2-fold steps and added to the wells in quadruplicates. The constant ratio is selected to reflect the relative potency of the drugs. […] The anti-viral effect was measured day 5 using the XTT calorimetric method.
A combination index (CI) less than 1 indicates synergism, CI equal to zero indicates addition and a CI greater than 1 indicates antagonism. Once again, the combinations have been tested at molar ratios reflecting their relative ED50s in cell culture.

In turn, `Cc1cn([C@H]2C[C@H](F)[C@@H](CO)O2)c(=O)[nH]c1=O` [alovudine, 3′-deoxy-3′-fluorothymidine] came in with an inhibition at 0.003 µM with HIV-1, IIIb of 27%. In the data set on multiresistant HIV, the serious adverse events entry is given as “no serious adverse events”, the tolerability result is “generally well tolerated” and the “transient mean increase in CD4 counts” value is listed as “+52 counts/mm^3”.
